Values of other authors in US9631212B2, “Gene cluster for biosynthesis of cornexistin and hydroxycornexistin” (BASF SE, priority 2012, dated 2017).
Like-named read-outs stand apart in the source and are kept apart here.

Assays:
[1] = in vivo

Compound | activity towards corn plants (corn plants) | activity towards corn plants (corn plants; listed as Cornexistin) | activity as a herbicide [1] | activity as a herbicide ([1]; listed as Cornexistin)
C/C=C1/CC2=C(C(=O)OC2=O)[C@H](CCC)[C@H](O)C(=O)C[C@@H]1O [cornexistin] | harmless to corn plants | relative inactivity towards corn plants | highly potent herbicides | good activity as a herbicide
CCC[C@H]1C2=C(C/C(=C/CO)[C@@H](O)CC(=O)[C@H]1O)C(=O)OC2=O [hydroxycornexistin] | harmless to corn plants |  | highly potent herbicides | 
